Data taken from patent publication US12180195B1, “6-(6-bromo-2-oxo-2H-chromen-3-yl)-4-(2,4-dichlorophenyl)-2-alkoxynicotinonitrile as an antimicrobial compound” (KING FAISAL UNIVERSITY, priority 2023, dated 2024).

Columns and labels:
Type in all cases: cell-based
Bacillus Cereus = experiment: Agar plate disc-diffusion, antibacterial inhibition zone; conditions: nutrient agar, 37° C., 48 hours, DMSO zone subtracted
Procedure: (§1) The agar plate disc-diffusion method was applied. Sterilized filter papers (6 mm in diameter) were wetted with 10 μL of a solution of compounds 6-(6-bromo-2-oxo-2H-chromen-3-yl)-4-(2,4-dichlorophenyl)-2-ethoxynicotinonitrile 1 or 6-(6-bromo-2-oxo-2H-chromen-3-yl)-4-(2,4-dichlorophenyl)-2-methoxynicotinonitrile 2 to be tested, containing […], and the discs were allowed to air dry. The discs were then placed onto the surface of agar plates (nutrient agar for bacteria and Sabouraud's dextrose agar for fungi) seeded with the test organism. Each plate contained 15 mL of the agar medium, previously seeded with 0.2 mL of the broth culture of each organism pregrown for 18 hours. The plates were incubated at 37° C. for 48 hours, and 72 hours for fungi. The inhibition zones were measured in mm. Discs impregnated with DMSO were used as a control, and its inhibition zone was subtracted from the tested compound actual inhibition zone.
(§2) The results of the antimicrobial testing can be observed in Tables 1 and 2, below, using ciprofloxacin as a reference.

Pseudomonas aeruginosa = experiment: as above; conditions: nutrient agar, 37° C., 48 hours, DMSO zone subtracted
Procedure: as §1, §2

Escherichia coli = experiment: as above; conditions: nutrient agar, 37° C., 48 hours, DMSO zone subtracted
Procedure: as §1, §2

Staphylococcus aureus = experiment: as above; conditions: nutrient agar, 37° C., 48 hours, DMSO zone subtracted
Procedure: as §1, §2

[1] = system: Chrysosporium keratinophilum; experiment: Agar plate disc-diffusion, antifungal inhibition zone; conditions: Sabouraud's dextrose agar, 72 hours, DMSO zone subtracted
Procedure: as §1, §2

Aspergillus flavus = experiment: as above; conditions: Sabouraud's dextrose agar, 72 hours, DMSO zone subtracted
Procedure: as §1, §2

different microbes = experiment: Antimicrobial testing, overall statement in words; conditions: summary of Tables 1 and 2, bacteria and fungi
Procedure: as §1
Their antibacterial activity was screened against gram positive bacteria namely Bacillus cereus and Staphylococcus aureus and gram-negative bacterial strains namely Pseudomonas aeruginosa and Escherichia coli, while their antifungal activity was screened against Aspergillus flavus and Chrysosporium keratinophilum.

[2] = A = concentration of comp. = 10,000 μL
[3] = B = concentration of comp. = 30,000 μL
[4] = C = concentration of comp. = 50,000 μL

| Compound | inhibition zone (Bacillus Cereus; [2]) [mm] | inhibition zone (Bacillus Cereus; [3]) [mm] | inhibition zone (Bacillus Cereus; [4]) [mm] | inhibition zone (Pseudomonas aeruginosa; [2]) [mm] | inhibition zone (Pseudomonas aeruginosa; [3]) [mm] | inhibition zone (Pseudomonas aeruginosa; [4]) [mm] | inhibition zone (Escherichia coli; [2]) [mm] | inhibition zone (Escherichia coli; [3]) [mm] | inhibition zone (Escherichia coli; [4]) [mm] | inhibition zone (Staphylococcus aureus; [2]) [mm] | inhibition zone (Staphylococcus aureus; [3]) [mm] | inhibition zone (Staphylococcus aureus; [4]) [mm] | inhibition zone [1, 2] [mm] | inhibition zone [1, 3] [mm] | inhibition zone [1, 4] [mm] | inhibition zone (Aspergillus flavus; [2]) [mm] | inhibition zone (Aspergillus flavus; [3]) [mm] | inhibition zone (Aspergillus flavus; [4]) [mm] | antimicrobial activity (in words) (different microbes) |
| --- | --- | --- | --- | --- | --- | --- | --- | --- | --- | --- | --- | --- | --- | --- | --- | --- | --- | --- | --- |
| COc1nc(-c2cc3cc(Br)ccc3oc2=O)cc(-c2ccc(Cl)cc2Cl)c1C#N [Compound 2, 6-(6-bromo-2-oxo-2H-chromen-3-yl)-4-(2,4-dichlorophenyl)-2-methoxynicotinonitrile] | 27 | 28 | 40 | 24 | 27 | 42 | 28 | 37 | 49 | 14 | 21 | 25 | 28 | 29 | 46 | 17 | 21 | 29 | high antimicrobial activities |
| CCOc1nc(-c2cc3cc(Br)ccc3oc2=O)cc(-c2ccc(Cl)cc2Cl)c1C#N [Compound 1, 6-(6-bromo-2-oxo-2H-chromen-3-yl)-4-(2,4-dichlorophenyl)-2-ethoxynicotinonitrile] | 26 | 27 | 38 | 24 | 31 | 42 | 30 | 38 | 54 | 13 | 20 | 27 | 22 | 33 | 39 | 26 | 28 | 39 | high antimicrobial activities |
| O=C(O)c1cn(C2CC2)c2cc(N3CCNCC3)c(F)cc2c1=O [Cip., ciprofloxacin, reference compound] | 29 | 30 | 42 | 29 | 30 | 53 | 30 | 39 | 60 | 43 | 44 | 53 | 29 | 30 | 53 | 29 | 30 | 42 | – |
